Patent US20090076050A1, “SYNERGISTIC TUMOR-KILLING EFFECT OF RADIATION AND BERBERINE COMBINED TREATMENT IN LUNG CANCER” (CHUNG SHAN MEDICAL U., priority 2007, published 2009)
Residues, ends and D or L forms follow the SMILES beside them. *: point of attachment. Cbz = O=C(OCc1ccccc1)*; CH2F = FC*

System: A549 cells
Assay: inhibition assay with caspase and autophagy inhibitors on cells co-treated with berberine and IR
Format: cell-based, human
Procedure: Berberine has been reported to induce cell death in several cancer cells via mitochondrial disruption (Lin J P, et al. World J Gastroenterol 2006; 12:21-28.). Therefore, mitochondrial membrane potential was next measured with JC-1. Mitochondria membrane potential (Δ Ψm), the lipophilic cationic probe fluorochrome JC-1 (Invitrogen) was used. […] After a treatment of radiation (6 Gy) for 24 h in the absence or presence of 1.0-10 μM berberine, cells were rinsed with DMEM, and JC-1 (5 μmol/L) was loaded. Determination of Δ Ψm was also carried out with a FACScan Flow Cytometer. […] It has been reported that depolarized mitochondria would move into autophagic vacuoles in response to appropriate stimulation; thus, mitochondria dysfunction may be a point of overlap between apoptotic and autophagocytic processes (Bras M, et al. Biochemistry (Mosc) 2005; 70:231-39). […] On the other hand, beclin-1 siRNA and 3-MA (autophagy inhibitor) blocked the cell death induced by 5.0 μM berberine combined with 6 Gy IR (p<0.001). As a consequence, berberine sensitized A549 cells to IR damage via inducing autophagic cell death.

With `Cn1cnc(N)c2ncnc1-2` [3-MA, 3-methyladenine] the “effect of inhibitor on cell death induced by berberine combined with IR” value (A549, 5.0 μM berberine combined with 6 Gy IR, p<0.001) was “blocked”.
With `COC(=O)C[C@H](NC(=O)[C@H](C)NC(=O)[C@@H](NC(=O)OCc1ccccc1)C(C)C)C(=O)CF` [z-VAD-fmk] (Cbz-Val-Ala-Asp(OMe)-CH2F) the “effect of inhibitor on cell viability of cells co-treated with berberine and IR” value (A549, berberine and IR co-treatment, p=0.15) was “did not significantly affect”.
